Reference: ChEMBL document CHEMBL4043233, “A structural investigation of FISLE-412, a peptidomimetic compound derived from saquinavir that targets lupus autoantibodies” (Bioorg Med Chem Lett, 2017)
Active and inactive are the calls of the source. The rule behind the calls is not given here.

Key:
[1] = (§1) Inhibition of D-DWEYS binding to mouse anti-dsDNA monoclonal antibody R4A pretreated for 1 hr followed by D-DWEYS peptide addition measured after 1 hr by ELISA
[2] = species on record: Mus musculus; test: as §1
[3] = species on record: Mus musculus; test: Inhibition of mouse glomerular binding to mouse anti-dsDNA monoclonal antibody R4A at 50 uM pretreated for 1 hr followed by glomerular addition by microscopic analysis

SMILES | IC50 ([1]; read-out: IC50) [µM] | IC50 [1] | also measured
CC(C)(C)NC(=O)[C@@H]1CC2CCCCC2CN1C[C@@H](O)[C@H](Cc1ccccc1)NC(=O)c1ccc2ccccc2n1 (stereo partly drawn) | 88.7 | – | –
NCC[C@@H](CN[C@@H](Cc1ccccc1)[C@H](O)CN1CCOCC1)NC(=O)c1ccc2ccccc2c1 | – | Not Active | –
CC(C)(C)NC[C@@H]1CC2CCCCC2CN1C[C@@H](O)[C@H](Cc1ccccc1)NC[C@H](CCN)NC(=O)C1CCCCN1 (stereo partly drawn) | 10 | – | –
O=C(O)c1ccc2ccccc2n1 [QUINALDIC ACID] | – | Not Active | –
OCC1Nc2ccccc2CC1O (stereo not drawn) | – | Not Active | –
CC(C)(C)NC[C@@H]1CC2CCCCC2CN1C[C@@H](O)[C@H](Cc1ccccc1)NC(=O)c1ccc2ccccc2c1 (stereo partly drawn) | 6.8 | – | –
CC(C)(C)NC[C@@H]1CC2CCCCC2CN1C[C@@H](O)[C@H](Cc1ccccc1)NC[C@H](CCN)NC(=O)c1ccccn1 (stereo partly drawn) | 12.5 | – | –
CC(C)(C)NC(=O)[C@@H]1CC2CCCCC2CN1C[C@@H](O)[C@H](Cc1ccccc1)NC(=O)[C@H](CCN)NCc1ccc2ccccc2n1 (stereo partly drawn) | – | Not Active | –
CC(C)(C)NC[C@@H]1CC2CCCCC2CN1C[C@@H](O)[C@@H](N)Cc1ccccc1 (stereo partly drawn) | – | – | inhibition ([2]; concentration not given here): < 20%
CC(C)(C)NC[C@@H]1CC2CCCCC2CN1C[C@@H](O)[C@H](Cc1ccccc1)NC[C@H](CCN)NCC1Nc2ccccc2CC1O (stereo partly drawn) | 4.5 | – | –
CC(C)(C)NC[C@@H]1CC2CCCCC2CN1C[C@@H](O)[C@H](Cc1ccccc1)NC[C@H](CCN)NCC1CCc2ccccc2N1 (stereo partly drawn) | 6.9 | – | –
CC(C)(C)NC(=O)[C@@H]1CC2CCCCC2CN1C[C@@H](O)[C@H](Cc1ccccc1)NC(=O)c1ccc2ccccc2c1 (stereo partly drawn) | > 100 | – | –
NCC[C@@H](CN[C@H](CO)Cc1ccccc1)NCC1CCc2ccccc2N1 (stereo partly drawn) | – | Not Active | –
CC(C)(C)NC[C@@H]1CC2CCCCC2CN1C[C@@H](O)[C@H](Cc1ccccc1)NC(=O)[C@H](CCN)NC(=O)c1nc2ccccc2cc1O (stereo partly drawn) | 19.7 | – | –
CC(C)(C)NC[C@@H]1CC2CCCCC2CN1C[C@@H](O)[C@H](Cc1ccccc1)NC(=O)c1ccc2ccccc2n1 (stereo partly drawn) | 5.8 | – | inhibition [2]: Dose-dependent effect; inhibition [3]: Active
CC(C)(C)NC[C@@H]1CC2CCCCC2CN1C[C@@H](O)[C@H](Cc1ccccc1)NC[C@H](CCN)NC(=O)c1ccc2ccccc2c1 (stereo partly drawn) | 3.7 | – | inhibition [2]: Dose-dependent effect; inhibition [3]: Active
CC(C)(C)NC[C@@H]1CC2CCCCC2CN1 (stereo partly drawn) | – | Not Active | –
CC(C)(C)NC[C@@H]1CC2CCCCC2CN1C[C@@H](O)[C@H](Cc1ccccc1)NC[C@H](CCN)NC(=O)c1ccc2ccccc2n1 (stereo partly drawn) | 7.3 | – | –
CC(C)(C)NC[C@@H]1CC2CCCCC2CN1C[C@@H](O)[C@H](Cc1ccccc1)NC[C@@H](N)CCN (stereo partly drawn) | 27.3 | – | –
